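Test compounds were applied to cells in 96-well plates for 48 hours at 5 doses. Here, GI50 denotes the concentration required for 50% inhibition of growth.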 The source made the active and inactive calls. Cut-off read from the data, not from the text of the source: active = GI50 up to about 1.1 µM and inactive = higher. Square brackets hold non-standard residues; d marks the D form. Peptide text beside a SMILES is read from it. 2Nal = N[CH](Cc1ccc2ccccc2c1)C(=O)O
How the values were obtained:
Test in all cases: inhibition of tumour cell growth, NCI panel, 48 h
DMS-273 = tested on: DMS-273
DMS-114 = tested on: DMS-114
DLD-1 = tested on: DLD-1
LXFL 529 = tested on: LXFL 529
M19-MEL = tested on: M19-MEL
SNB-78 = tested on: SNB-78
HOP-18 = tested on: HOP-18
RXF 631 = tested on: RXF 631
XF498 = tested on: XF498

Compound	GI50 (DMS-273)	GI50 (DMS-114)	GI50 (DLD-1)	GI50 (LXFL 529)	GI50 (M19-MEL)	GI50 (SNB-78)	GI50 (HOP-18)	GI50 (RXF 631)	GI50 (XF498)
O=C(CSc1nnc(Cc2ccccc2)o1)Nc1cccc([N+](=O)[O-])c1	> 100 µM (inactive)	> 100 µM (inactive)	> 100 µM (inactive)	> 100 µM (inactive)	> 100 µM (inactive)	> 100 µM (inactive)	> 100 µM (inactive)	–	–
COc1cc(OC)c(C(=O)c2cccs2)cc1N	> 100 µM (inactive)	> 100 µM (inactive)	> 100 µM (inactive)	> 100 µM (inactive)	> 100 µM (inactive)	> 100 µM (inactive)	23.7 µM (inactive)	> 100 µM (inactive)	> 100 µM (inactive)
CCOc1ccc(NCC(=O)N2CC(=O)Nc3ccccc32)cc1	> 100 µM (inactive)	–	> 100 µM (inactive)	> 100 µM (inactive)	> 100 µM (inactive)	> 100 µM (inactive)	> 100 µM (inactive)	–	> 100 µM (inactive)
COc1cc(NC(C)=O)c2[nH]c3c(C)cc(NC(C)=O)c(C)c3c2c1	> 100 µM (inactive)	> 100 µM (inactive)	> 100 µM (inactive)	> 100 µM (inactive)	> 100 µM (inactive)	–	> 100 µM (inactive)	–	> 100 µM (inactive)
O=C1c2ccccc2C(=O)N1Cc1ccccc1-c1c2nc(c(-c3ccccc3CN3C(=O)c4ccccc4C3=O)c3ccc([nH]3)c(-c3ccccc3CN3C(=O)c4ccccc4C3=O)c3nc(c(-c4ccccc4CN4C(=O)c5ccccc5C4=O)c4ccc1[nH]4)C=C3)C=C2	> 100 µM (inactive)	> 100 µM (inactive)	> 100 µM (inactive)	> 100 µM (inactive)	> 100 µM (inactive)	> 100 µM (inactive)	> 100 µM (inactive)	–	–
C/C(CC(=O)Nc1ccc(Cl)cc1)=N\NC(=O)C[n+]1ccccc1	> 100 µM (inactive)	> 100 µM (inactive)	> 100 µM (inactive)	> 100 µM (inactive)	–	> 100 µM (inactive)	–	> 100 µM (inactive)	> 100 µM (inactive)
NCCNc1ccc(NCCN)c2c1C(=O)c1c(O)ccc(O)c1C2=O	< 0.001 µM (active)	< 0.001 µM (active)	0.0336 µM (active)	0.00807 µM (active)	0.0197 µM (active)	0.207 µM (active)	0.361 µM (active)	< 0.001 µM (active)	< 0.001 µM (active)
C/C(=C/C(=O)Nc1ccccc1)Nc1onc(C)c1C	> 100 µM (inactive)	> 100 µM (inactive)	> 100 µM (inactive)	–	> 100 µM (inactive)	> 100 µM (inactive)	> 100 µM (inactive)	–	> 100 µM (inactive)
Cc1cc(NS(=O)(=O)c2ccc(NC(=O)COC(=O)c3cccc4c(=O)c5ccccc5[nH]c34)cc2)no1	> 100 µM (inactive)	> 100 µM (inactive)	> 100 µM (inactive)	> 100 µM (inactive)	> 100 µM (inactive)	> 100 µM (inactive)	–	–	> 100 µM (inactive)
COC(=O)C(CC(C)C)NC(=O)NC12CC3CC(CC(F)(C3)C1)C2 (stereo not drawn)	–	> 100 µM (inactive)	> 100 µM (inactive)	> 100 µM (inactive)	> 100 µM (inactive)	> 100 µM (inactive)	–	> 100 µM (inactive)	–
CC(C)=CCc1c(O)cc(O)c2c1OC(c1ccc(O)cc1)C(O)C2=O (stereo not drawn)	–	39.4 µM (inactive)	30.2 µM (inactive)	28.8 µM (inactive)	35.7 µM (inactive)	24.3 µM (inactive)	17.8 µM (inactive)	31.8 µM (inactive)	30.2 µM (inactive)
Cc1ccc(Sc2ccccc2[N+](=O)[O-])cc1	28.6 µM (inactive)	–	32.4 µM (inactive)	29.6 µM (inactive)	32.1 µM (inactive)	36.6 µM (inactive)	> 100 µM (inactive)	–	–
CC(=O)OC1CC2OC(Cc3ccccc32)O1 (stereo not drawn)	> 100 µM (inactive)	> 100 µM (inactive)	64.1 µM (inactive)	> 100 µM (inactive)	60.4 µM (inactive)	> 100 µM (inactive)	32.8 µM (inactive)	–	> 100 µM (inactive)
O=C[C@@H](CO)O[C@H](C=O)n1cnc2c(=O)nc[nH]c21	101 µM (inactive)	39.2 µM (inactive)	77.8 µM (inactive)	–	346 µM (inactive)	562 µM (inactive)	388 µM (inactive)	–	459 µM (inactive)
COC(=O)C(Cc1nc2ccc(Cl)cc2nc1O)/C(=N/O)C(=O)Nc1cccc(Cl)c1C (stereo not drawn)	> 100 µM (inactive)	> 100 µM (inactive)	> 100 µM (inactive)	> 100 µM (inactive)	> 100 µM (inactive)	> 100 µM (inactive)	> 100 µM (inactive)	–	> 100 µM (inactive)
O=C1NC2OC(C(O)CO)C(O)C2O1 (stereo not drawn)	> 100 µM (inactive)	> 100 µM (inactive)	–	> 100 µM (inactive)	> 100 µM (inactive)	–	> 100 µM (inactive)	–	> 100 µM (inactive)
CC(C)c1cccc(C(C)C)c1NC(=S)Nc1ccccc1	> 100 µM (inactive)	43 µM (inactive)	> 100 µM (inactive)	> 100 µM (inactive)	> 100 µM (inactive)	> 100 µM (inactive)	> 100 µM (inactive)	> 100 µM (inactive)	0.434 µM (active)
CCOc1cccc2sc(N)nc12	> 100 µM (inactive)	> 100 µM (inactive)	> 100 µM (inactive)	> 100 µM (inactive)	> 100 µM (inactive)	> 100 µM (inactive)	> 100 µM (inactive)	–	–
Cc1ccccc1NC(=O)C(=O)CC(=O)c1ccc([N+](=O)[O-])cc1	> 100 µM (inactive)	> 100 µM (inactive)	> 100 µM (inactive)	> 100 µM (inactive)	> 100 µM (inactive)	> 100 µM (inactive)	> 100 µM (inactive)	> 100 µM (inactive)	> 100 µM (inactive)
CCOC(=O)CC1=CSC2=NCCN12	> 100 µM (inactive)	> 100 µM (inactive)	> 100 µM (inactive)	> 100 µM (inactive)	> 100 µM (inactive)	> 100 µM (inactive)	> 100 µM (inactive)	> 100 µM (inactive)	> 100 µM (inactive)
COc1cccc(N[C@@H]2c3cc4c(cc3C(c3cc(OC)c(O)c(OC)c3)[C@H]3C(=O)OCC32)OCO4)c1 (stereo partly drawn)	0.148 µM (active)	0.578 µM (active)	1.58 µM (inactive)	–	0.624 µM (active)	5.36 µM (inactive)	1.52 µM (inactive)	–	1.12 µM (inactive)
COc1cc2c(c(OC)c1OC)-c1ccc(SC)c(=O)cc1[C@@H](NCc1ccc(C#N)cc1)CC2	0.0034 µM (active)	0.00236 µM (active)	0.00348 µM (active)	0.0053 µM (active)	0.00361 µM (active)	0.00531 µM (active)	–	–	0.00321 µM (active)
CC(C)C(NC(=O)C(CCCCN)NC(=O)C(Cc1c[nH]c2ccccc12)NC(=O)C(Cc1ccc(O)cc1)NC(=O)C(CS)NC(=O)C(N)Cc1ccc2ccccc2c1)C(=O)NC(CS)C(=O)NC(C(N)=O)C(C)O (stereo not drawn) (H-[2Nal]CYWKVCT-NH2; configuration not given here)	> 100 µM (inactive)	> 100 µM (inactive)	> 100 µM (inactive)	> 100 µM (inactive)	> 100 µM (inactive)	8.15 µM (inactive)	> 100 µM (inactive)	> 100 µM (inactive)	> 100 µM (inactive)

— ChEMBL document CHEMBL1201862, “PubChem BioAssay data set” (2004)
